ChEMBL document CHEMBL1201862, “PubChem BioAssay data set” (2004)
Calls of active or inactive are those of the source.

How the values were obtained:
Nonstructural protein 1 = Nonstructural protein 1 (Influenza A virus, UniProt Q194T2); format: functional, Influenza A virus (A/California/07/2009(H1N1))
[1] = target: T1, High affinity choline transporter 1 (Homo sapiens, UniProt Q9GZV3); experiment: human choline transporter blockers, potency – cell-based, 5-point CRC, membrane potential dye, dose response (AID 504840); format: functional
T1 sequence (Q9GZV3 whole entry): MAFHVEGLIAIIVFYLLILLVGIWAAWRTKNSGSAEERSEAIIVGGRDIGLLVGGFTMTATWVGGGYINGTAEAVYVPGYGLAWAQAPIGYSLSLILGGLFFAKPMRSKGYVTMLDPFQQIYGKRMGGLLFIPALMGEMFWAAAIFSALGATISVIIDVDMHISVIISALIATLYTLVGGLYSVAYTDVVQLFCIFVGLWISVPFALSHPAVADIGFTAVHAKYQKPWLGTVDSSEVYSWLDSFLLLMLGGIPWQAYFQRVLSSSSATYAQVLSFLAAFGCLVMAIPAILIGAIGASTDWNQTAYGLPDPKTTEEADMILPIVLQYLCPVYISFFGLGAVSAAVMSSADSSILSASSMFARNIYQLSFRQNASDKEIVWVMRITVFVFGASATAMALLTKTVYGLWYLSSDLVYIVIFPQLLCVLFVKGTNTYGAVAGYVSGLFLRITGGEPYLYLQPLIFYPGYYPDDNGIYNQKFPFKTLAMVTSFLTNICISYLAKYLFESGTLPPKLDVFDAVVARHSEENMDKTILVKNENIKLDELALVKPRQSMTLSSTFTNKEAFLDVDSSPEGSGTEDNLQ

[2] = target: 26S proteasome non-ATPase regulatory subunit 14 (Homo sapiens, UniProt O00487); experiment: inhibition of proteasome subunit RPN11 – biochemical, fluorescence polarization, uHTS hits, confirmation (AID 602368); format: functional
26S proteasome non-ATPase regulatory subunit 14, sequence (O00487 whole entry): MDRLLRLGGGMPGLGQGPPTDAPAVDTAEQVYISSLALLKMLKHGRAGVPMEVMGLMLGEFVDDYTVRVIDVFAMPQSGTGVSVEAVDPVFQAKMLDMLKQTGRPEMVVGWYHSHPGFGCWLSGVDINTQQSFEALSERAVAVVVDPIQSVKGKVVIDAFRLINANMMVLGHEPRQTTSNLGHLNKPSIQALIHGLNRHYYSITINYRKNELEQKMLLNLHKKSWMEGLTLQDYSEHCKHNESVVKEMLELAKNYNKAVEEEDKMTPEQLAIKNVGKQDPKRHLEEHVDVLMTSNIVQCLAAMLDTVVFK

[3] = target: 72 kDa type IV collagenase (Homo sapiens, UniProt P08253); experiment: Dose Response validation of uHTS RPN11 inhibitor hits using a MMP-2 Fluorescence assay.; format: functional
72 kDa type IV collagenase, sequence (P08253 whole entry): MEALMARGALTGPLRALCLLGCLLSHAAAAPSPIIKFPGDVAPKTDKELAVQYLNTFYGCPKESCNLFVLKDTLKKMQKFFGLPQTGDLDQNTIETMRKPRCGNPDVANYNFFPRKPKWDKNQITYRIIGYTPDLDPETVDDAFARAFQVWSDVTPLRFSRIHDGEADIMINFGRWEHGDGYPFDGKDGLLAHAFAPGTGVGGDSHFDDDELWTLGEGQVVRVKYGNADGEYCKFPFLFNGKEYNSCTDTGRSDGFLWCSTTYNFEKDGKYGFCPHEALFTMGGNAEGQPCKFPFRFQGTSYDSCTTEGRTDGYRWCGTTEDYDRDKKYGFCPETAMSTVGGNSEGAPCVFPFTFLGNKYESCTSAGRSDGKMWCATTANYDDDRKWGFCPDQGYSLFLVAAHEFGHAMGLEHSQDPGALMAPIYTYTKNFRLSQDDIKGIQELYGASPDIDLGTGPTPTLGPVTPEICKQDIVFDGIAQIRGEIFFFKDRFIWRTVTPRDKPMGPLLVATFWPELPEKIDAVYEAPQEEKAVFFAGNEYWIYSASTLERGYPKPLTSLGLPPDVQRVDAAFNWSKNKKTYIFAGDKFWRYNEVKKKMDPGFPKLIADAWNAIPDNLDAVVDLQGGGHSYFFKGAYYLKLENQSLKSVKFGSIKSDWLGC

Prothrombin = Prothrombin (Bos taurus, UniProt P00735); experiment: thrombin protease inhibitors – biochemical, fluorescence polarization, uHTS hits, dose response (AID 602369); format: functional
[4] = target: T2, Probable nicotinate-nucleotide adenylyltransferase (Staphylococcus aureus (strain N315), UniProt P65502); format: functional, Staphylococcus aureus subsp. aureus N315;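 as to IC50 Mean: confirmatory dose-response retesting of NadD inhibitor hits first found in an ultra-high-throughput screen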
T2 sequence (P65502 whole entry): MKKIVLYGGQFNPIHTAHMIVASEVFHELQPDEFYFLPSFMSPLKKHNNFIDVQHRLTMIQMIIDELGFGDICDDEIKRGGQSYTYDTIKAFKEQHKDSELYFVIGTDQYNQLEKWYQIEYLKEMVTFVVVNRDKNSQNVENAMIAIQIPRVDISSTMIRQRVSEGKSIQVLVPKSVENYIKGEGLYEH

[5] = target: T2, Probable nicotinate-nucleotide adenylyltransferase; format: functional, Staphylococcus aureus subsp. aureus N315; details: read-out: IC50_Mean
[6] = activation of miR-122 Renilla sensor silencing – cell-based, Huh7 psiCHECK-miR122, Renilla luciferase, cherry-picked, dose response (AID 651956); format: functional;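 also: huh7 hepatoma cells stably carrying a psiCHECK-2 miR-122 sensor plasmid; renilla luciferase signal reporting endogenous miR-122 activity after 48 h compound exposure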
Melanocortin receptor 4 [7] = target: T3, Melanocortin receptor 4 (Homo sapiens, UniProt P32245); format: functional, cell-based;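 also: Cell-based assay with luminescence read-out, confirmatory dose-response testing for agonist activity of biased ligands at MC4R; human U2OS cells with tagged receptor and beta-arrestin; potency of agonists that increase receptor coupling to beta-arrestin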
T3 sequence (P32245 whole entry): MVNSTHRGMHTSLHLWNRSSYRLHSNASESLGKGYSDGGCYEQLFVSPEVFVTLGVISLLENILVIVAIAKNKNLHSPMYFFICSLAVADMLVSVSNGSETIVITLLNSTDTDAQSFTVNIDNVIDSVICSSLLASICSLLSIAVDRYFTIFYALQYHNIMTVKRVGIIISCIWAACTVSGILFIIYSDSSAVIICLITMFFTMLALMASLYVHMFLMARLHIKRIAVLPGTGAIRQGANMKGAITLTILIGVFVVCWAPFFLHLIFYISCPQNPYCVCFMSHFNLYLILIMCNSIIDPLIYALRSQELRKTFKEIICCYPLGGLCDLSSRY

[8] = target: Ras and Rab interactor 1/Tyrosine-protein kinase ABL1 (Homo sapiens, UniProt P00519+Q13671); format: functional;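 also: biochemical TR-FRET dose-response test measuring inhibition of binding between Rin1 and Abl proteins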
Ras and Rab interactor 1/Tyrosine-protein kinase ABL1, sequence (P00519 whole entry): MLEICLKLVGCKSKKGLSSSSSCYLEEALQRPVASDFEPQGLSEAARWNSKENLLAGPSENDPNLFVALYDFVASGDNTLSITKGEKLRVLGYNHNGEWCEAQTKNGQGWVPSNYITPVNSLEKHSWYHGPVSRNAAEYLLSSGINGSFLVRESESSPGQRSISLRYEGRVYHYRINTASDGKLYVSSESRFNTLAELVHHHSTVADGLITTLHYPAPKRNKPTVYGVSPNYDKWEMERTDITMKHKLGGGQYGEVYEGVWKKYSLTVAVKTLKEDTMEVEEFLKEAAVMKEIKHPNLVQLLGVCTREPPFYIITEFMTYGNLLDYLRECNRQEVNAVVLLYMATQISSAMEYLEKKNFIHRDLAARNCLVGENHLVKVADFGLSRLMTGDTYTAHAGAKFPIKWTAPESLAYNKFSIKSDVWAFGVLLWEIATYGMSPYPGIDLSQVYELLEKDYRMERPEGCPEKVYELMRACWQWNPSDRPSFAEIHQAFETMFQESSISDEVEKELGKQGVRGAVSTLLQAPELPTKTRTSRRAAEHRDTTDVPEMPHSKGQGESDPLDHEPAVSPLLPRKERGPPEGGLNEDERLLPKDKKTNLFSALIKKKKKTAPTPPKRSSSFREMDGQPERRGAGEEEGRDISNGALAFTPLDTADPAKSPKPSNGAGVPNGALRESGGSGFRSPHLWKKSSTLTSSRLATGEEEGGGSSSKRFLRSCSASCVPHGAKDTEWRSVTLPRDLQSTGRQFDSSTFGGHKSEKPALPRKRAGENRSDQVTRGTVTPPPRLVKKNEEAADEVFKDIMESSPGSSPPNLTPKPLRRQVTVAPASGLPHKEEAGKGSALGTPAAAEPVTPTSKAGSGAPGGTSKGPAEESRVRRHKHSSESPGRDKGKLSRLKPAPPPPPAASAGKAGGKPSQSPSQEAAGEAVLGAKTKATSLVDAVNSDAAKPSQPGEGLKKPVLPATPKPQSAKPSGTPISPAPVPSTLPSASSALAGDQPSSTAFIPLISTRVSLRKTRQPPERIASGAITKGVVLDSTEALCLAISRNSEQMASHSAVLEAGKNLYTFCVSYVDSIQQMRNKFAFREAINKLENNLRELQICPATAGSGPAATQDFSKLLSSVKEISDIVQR
Ras and Rab interactor 1/Tyrosine-protein kinase ABL1, sequence (Q13671 whole entry): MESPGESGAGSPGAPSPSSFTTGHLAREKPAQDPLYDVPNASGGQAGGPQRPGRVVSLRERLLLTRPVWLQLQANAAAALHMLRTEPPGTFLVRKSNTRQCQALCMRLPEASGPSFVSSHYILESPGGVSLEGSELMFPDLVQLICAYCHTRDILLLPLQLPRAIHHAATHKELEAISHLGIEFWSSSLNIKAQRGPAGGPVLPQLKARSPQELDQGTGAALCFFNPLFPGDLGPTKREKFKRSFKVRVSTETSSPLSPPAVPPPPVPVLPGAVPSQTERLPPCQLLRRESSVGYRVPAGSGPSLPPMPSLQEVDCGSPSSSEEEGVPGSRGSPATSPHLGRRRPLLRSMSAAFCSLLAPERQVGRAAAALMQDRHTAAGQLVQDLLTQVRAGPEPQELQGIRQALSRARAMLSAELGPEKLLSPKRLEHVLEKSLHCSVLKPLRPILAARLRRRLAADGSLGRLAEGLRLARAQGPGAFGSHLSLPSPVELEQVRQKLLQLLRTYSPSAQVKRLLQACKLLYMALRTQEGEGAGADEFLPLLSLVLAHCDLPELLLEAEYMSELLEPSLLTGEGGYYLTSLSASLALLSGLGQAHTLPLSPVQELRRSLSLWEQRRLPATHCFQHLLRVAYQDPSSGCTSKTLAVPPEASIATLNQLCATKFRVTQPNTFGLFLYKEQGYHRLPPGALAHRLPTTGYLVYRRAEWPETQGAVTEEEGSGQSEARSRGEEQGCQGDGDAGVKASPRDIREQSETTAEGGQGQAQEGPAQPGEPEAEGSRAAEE

Beta-galactosidase = Beta-galactosidase (Escherichia coli, UniProt Q8VNN2); experiment: PubChem AID 485352; format: functional
Beta-galactosidase, sequence (Q8VNN2 whole entry): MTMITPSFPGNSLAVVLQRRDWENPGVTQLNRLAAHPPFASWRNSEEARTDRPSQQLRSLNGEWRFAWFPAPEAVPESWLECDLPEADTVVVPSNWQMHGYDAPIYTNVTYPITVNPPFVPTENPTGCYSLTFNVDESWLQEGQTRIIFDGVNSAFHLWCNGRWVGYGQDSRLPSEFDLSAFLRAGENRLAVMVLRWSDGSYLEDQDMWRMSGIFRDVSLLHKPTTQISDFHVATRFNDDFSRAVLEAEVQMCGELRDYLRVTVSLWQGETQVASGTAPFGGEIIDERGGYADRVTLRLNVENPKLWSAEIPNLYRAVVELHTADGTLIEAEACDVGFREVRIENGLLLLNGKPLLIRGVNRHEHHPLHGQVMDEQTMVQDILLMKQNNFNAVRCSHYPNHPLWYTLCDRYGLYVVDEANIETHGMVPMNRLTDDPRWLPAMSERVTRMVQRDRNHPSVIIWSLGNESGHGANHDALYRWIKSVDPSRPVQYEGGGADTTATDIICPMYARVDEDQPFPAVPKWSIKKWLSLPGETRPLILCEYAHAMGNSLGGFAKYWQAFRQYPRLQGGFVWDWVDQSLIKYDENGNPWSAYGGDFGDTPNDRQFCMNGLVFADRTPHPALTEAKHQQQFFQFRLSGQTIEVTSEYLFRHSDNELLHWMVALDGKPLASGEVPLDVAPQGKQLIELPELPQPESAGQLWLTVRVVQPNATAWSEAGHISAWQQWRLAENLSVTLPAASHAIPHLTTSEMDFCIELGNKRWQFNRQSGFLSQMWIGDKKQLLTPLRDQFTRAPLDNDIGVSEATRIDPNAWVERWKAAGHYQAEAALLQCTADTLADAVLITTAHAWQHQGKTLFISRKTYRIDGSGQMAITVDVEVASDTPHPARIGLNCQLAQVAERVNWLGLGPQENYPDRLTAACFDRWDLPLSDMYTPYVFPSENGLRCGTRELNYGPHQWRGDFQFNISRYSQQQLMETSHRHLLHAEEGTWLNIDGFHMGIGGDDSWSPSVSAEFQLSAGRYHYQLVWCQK

[9] = target: T4, Type-1 angiotensin II receptor (Homo sapiens, UniProt P30556); experiment: antagonism of angiotensin II type 1 receptor – cell-based, uHTS hits, selectivity assay for APJ receptor antagonist project, dose response (AID 463214); format: functional;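 also: antagonist potency against angiotensin II stimulated AT1 response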
T4 sequence (P30556 whole entry): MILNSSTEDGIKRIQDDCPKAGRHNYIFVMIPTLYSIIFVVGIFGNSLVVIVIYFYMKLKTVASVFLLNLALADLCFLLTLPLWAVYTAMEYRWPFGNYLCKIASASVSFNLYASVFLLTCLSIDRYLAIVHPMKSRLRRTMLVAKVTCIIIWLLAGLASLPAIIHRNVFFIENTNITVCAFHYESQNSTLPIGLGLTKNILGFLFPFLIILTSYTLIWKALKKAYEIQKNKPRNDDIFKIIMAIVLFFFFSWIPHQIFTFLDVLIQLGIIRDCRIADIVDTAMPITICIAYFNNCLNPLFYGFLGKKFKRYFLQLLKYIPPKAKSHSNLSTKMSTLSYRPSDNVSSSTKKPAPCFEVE

[10] = viability of PTEN-deleted HCT116 cells – cell-based, HCT116 PTEN knockout, dose response (AID 1047); format: functional;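 also: HCT116 colon tumor cells with PTEN knocked out; cells exposed to compound for 60 hours before readout; potency for loss of cell viability measured by luminescence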
[11] = viability of HCT116 lacking mutant beta-catenin – cell-based, human colon tumor, dose response (AID 1045); format: functional;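 also: HCT116 colon tumor cells with beta catenin knocked out; cells exposed to compound for 60 hours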
[12] = Luminescence Cell-Based Dose Retest to Confirm Inhibitors of Cancer Stem Cells. [Related pubchem assays (depositor defined):AID2717, AID2721]; format: functional; details: Homo sapiens
[13] = target: Beta-2 adrenergic receptor (Homo sapiens, UniProt P07550); experiment: ADRB2 activation measured by internalization – cell-based, FAP fluorogen, flow cytometry, cherry pick 1, dose response (AID 588763); format: functional
Melanocortin receptor 4 [14] = target: T3, Melanocortin receptor 4; experiment: inhibitors of MC4R cAMP signaling – cell-based, TR-FRET, biased antagonists, dose response (AID 602298); format: functional;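 also: antagonist potency against agonist-stimulated cAMP production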
[15] = cAMP pathway inhibition in counterscreen cell line – TR-FRET cAMP detection, counter-screen for MC4R biased antagonist project, dose response (AID 602305); format: functional, cell-based;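 also: U2OS cells stimulated with forskolin near its EC80 as the cAMP inducer; potency is for inhibition of forskolin-stimulated cAMP signaling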
[16] = target: T5, DNA repair and recombination protein RAD54-like (Homo sapiens, UniProt Q92698); experiment: RAD54 Holliday junction migration blockers – biochemical, fluorescence, cherry-picked samples, dose series, confirmation (AID 651657); format: functional
T5 sequence (Q92698 whole entry): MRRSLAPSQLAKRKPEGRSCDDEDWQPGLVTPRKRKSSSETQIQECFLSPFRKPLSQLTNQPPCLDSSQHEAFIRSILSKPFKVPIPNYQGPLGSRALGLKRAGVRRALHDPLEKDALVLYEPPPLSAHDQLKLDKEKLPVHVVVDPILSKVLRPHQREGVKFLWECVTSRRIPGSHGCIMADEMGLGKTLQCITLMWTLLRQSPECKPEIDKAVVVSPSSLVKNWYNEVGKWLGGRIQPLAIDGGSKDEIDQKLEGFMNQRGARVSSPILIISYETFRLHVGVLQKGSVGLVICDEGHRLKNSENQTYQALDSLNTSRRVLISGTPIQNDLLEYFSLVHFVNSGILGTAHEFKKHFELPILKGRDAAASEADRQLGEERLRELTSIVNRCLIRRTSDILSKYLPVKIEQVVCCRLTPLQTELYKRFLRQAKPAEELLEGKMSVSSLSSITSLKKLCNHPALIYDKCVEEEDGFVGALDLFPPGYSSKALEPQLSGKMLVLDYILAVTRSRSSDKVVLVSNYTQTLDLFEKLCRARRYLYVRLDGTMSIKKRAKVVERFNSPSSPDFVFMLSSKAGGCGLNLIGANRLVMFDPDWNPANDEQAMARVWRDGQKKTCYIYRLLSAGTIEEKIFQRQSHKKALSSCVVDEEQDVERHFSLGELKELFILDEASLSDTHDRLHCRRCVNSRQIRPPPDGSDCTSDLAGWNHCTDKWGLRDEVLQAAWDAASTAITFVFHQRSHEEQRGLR

Paired box protein Pax-8 = Paired box protein Pax-8 (Homo sapiens, UniProt Q06710); experiment: PAX8 transcriptional activity inhibition in RMG-I – RMG-I cells, luciferase, cherry-pick, dose response (AID 687027); format: functional, cell-based;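 also: luciferase reporter driven by Pax8 target thyroperoxidase promoter measured by SteadyGlo luminescence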
[17] = target: T6, Short transient receptor potential channel 4 (Mus musculus, UniProt Q9QUQ5); experiment: calcium entry via TRPC4 opening agents – cell-based, HEK293 TRPC4/mu-opioid, Fluo-4 calcium, dose response (AID 434937); format: functional
T6 sequence (Q9QUQ5 whole entry): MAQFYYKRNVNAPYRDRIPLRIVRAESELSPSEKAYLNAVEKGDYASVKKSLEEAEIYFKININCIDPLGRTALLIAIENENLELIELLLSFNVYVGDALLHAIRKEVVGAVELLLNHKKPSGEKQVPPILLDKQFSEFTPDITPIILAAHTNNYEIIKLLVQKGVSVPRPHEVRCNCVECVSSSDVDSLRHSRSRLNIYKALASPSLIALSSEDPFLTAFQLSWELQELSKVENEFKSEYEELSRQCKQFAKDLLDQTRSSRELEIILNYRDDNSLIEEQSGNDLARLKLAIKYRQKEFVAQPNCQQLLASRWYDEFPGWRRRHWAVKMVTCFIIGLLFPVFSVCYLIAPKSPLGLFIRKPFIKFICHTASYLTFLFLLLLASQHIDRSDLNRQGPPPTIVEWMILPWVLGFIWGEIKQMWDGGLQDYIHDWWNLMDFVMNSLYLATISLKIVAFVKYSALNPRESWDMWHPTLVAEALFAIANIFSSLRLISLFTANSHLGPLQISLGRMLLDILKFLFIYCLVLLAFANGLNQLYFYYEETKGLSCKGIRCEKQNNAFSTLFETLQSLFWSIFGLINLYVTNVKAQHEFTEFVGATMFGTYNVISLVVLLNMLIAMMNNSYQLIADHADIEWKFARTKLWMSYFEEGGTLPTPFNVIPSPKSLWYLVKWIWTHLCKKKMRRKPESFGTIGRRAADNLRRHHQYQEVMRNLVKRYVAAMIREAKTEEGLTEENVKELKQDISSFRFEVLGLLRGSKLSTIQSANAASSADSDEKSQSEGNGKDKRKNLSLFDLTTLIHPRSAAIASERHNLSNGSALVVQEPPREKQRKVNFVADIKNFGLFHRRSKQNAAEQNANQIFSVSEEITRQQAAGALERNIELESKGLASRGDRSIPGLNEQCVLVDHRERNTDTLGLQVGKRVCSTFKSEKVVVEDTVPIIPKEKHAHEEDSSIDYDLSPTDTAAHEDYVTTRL

Nonstructural protein 1, sequence (Q194T2 whole entry): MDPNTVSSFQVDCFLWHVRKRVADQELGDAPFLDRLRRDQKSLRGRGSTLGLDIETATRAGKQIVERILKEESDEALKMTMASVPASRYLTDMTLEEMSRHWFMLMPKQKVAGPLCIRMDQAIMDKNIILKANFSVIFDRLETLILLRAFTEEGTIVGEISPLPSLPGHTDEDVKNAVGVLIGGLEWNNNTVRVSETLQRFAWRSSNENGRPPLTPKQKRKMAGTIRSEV

COc1cccc(-c2nn(-c3ccccc3)cc2/C=C(\C#N)C(=O)NCCCn2ccnc2)c1
IC50 (Nonstructural protein 1): 74.2 µM (active) | IC50 [1]: 10.5 µM (active) | IC50 [2]: 38.9 µM (active) | IC50 [3]: > 100 µM (inactive) | IC50 (Prothrombin): 44.4 µM (active)

C#CCN(C[C@H]1[C@H](OC(=O)NCc2ccccc2)[C@H](OC(=O)NCc2ccccc2)C[C@H]2C(=O)N(c3ccccc3)C(=O)[C@@H]12)S(=O)(=O)c1ccc(C)cc1
IC50 [4]: 16.5 µM (active) | IC50 [5]: 42.3 µM (active)

COc1cccc(-c2ccc3c(c2)O[C@H](CN(C)C(=O)C2CCOCC2)[C@H](C)CN([C@H](C)CO)S3(=O)=O)c1
AC50 [6]: 15.8 µM (active)

CCN1CCC(O)(/C=C/c2ccc(C(C)C)cc2)C(C(=O)/C=C/c2ccc(C(C)C)cc2)C1 (configuration not stated)
EC50 (Melanocortin receptor 4 [7]): > 89.2 µM (inactive)

Cc1nc(SCc2nc3cc(Cl)c(F)cc3[nH]2)c2oc3ccccc3c2n1
IC50 [2]: 38.1 µM (active) | IC50 [3]: > 100 µM (inactive) | IC50 (Prothrombin): 42.5 µM (active)

COc1ccc(/C=N/NC(=O)Cn2c(Cc3ccc(OC)c(OC)c3)nc3ccccc32)cc1
IC50 [8]: > 73.4 µM (inactive)

CC(C)Cc1nc2oc3c(Cl)ncnc3c2c2c1CCC2
EC50 (Beta-galactosidase): > 40 µM (inactive) | IC50 [9]: > 40 µM (not active) | EC50 [10]: 18 µM (active) | EC50 [11]: 8.07 µM (active) | AC50 [12]: 4.61 µM (active) | EC50 [13]: 11.8 µM (inactive) | IC50 (Melanocortin receptor 4 [14]): > 64.6 µM (inactive) | IC50 [15]: > 64.6 µM (inactive)

COc1cccc(-c2nc(NCCN3CCOCC3)c3ccccc3n2)c1O
AC50 [6]: 51.4 µM (active) | AC50 [16]: 8.35 µM (active)

CCN1CCN(Cc2ccc(NC(=O)c3cc(NC(=O)C(=O)c4c[nH]c5ccccc45)cc(OC)c3)cc2C(F)(F)F)CC1
EC50 (Melanocortin receptor 4 [7]): > 89.2 µM (inactive) | AC50 (Paired box protein Pax-8): 8.98 µM (active)

CC(C)C1CC(CCNCc2ccc3c(c2)OCO3)(c2ccccc2)CCO1 (configuration not stated)
EC50 [17]: 5.96 µM (active) | IC50 (Melanocortin receptor 4 [14]): > 64.6 µM (inactive) | IC50 [15]: > 64.6 µM (inactive)

COc1ccc(C(NC(=O)C2CCN(CCOc3ccc(Cl)cc3Cl)CC2)c2ccccc2C)cn1 (configuration not stated)
EC50 (Melanocortin receptor 4 [7]): > 89.2 µM (inactive)

Cc1cccc(N2CCN(C(=O)c3ccc4c(c3)NC(=O)C(CSCc3cccc(F)c3)N4)CC2C)c1 (configuration not stated)
IC50 [4]: 3.09 µM (active) | IC50 [5]: 13.8 µM (active)

O=C1NC[C@@H](CCCCN2C[C@H](Cc3ccc(O)cc3)N(CCC3CCCCC3)C(=O)C2=O)N(CC2CCCCC2)C1=O
IC50 [4]: 8.3 µM (active) | IC50 [5]: 37.2 µM (active)

O=C(Cc1ccc(NC(=O)C2CCN(C(=O)C3CCCCC3)CC2)cc1)Nc1ccc(C(=O)N2CCOCC2)cc1
IC50 [8]: 5.51 µM (active)

CCOC(=O)c1c(C)[nH]c(C(=O)OCC(=O)N(CC(C)C)c2c(N)n(Cc3ccccc3)c(=O)[nH]c2=O)c1C
IC50 [2]: 31.8 µM (active) | IC50 [3]: > 100 µM (inactive) | IC50 (Prothrombin): 33.7 µM (active)
